From article PMC10866072, “Design, synthesis, molecular modelling and biological evaluation of novel 6-amino-5-cyano-2-thiopyrimidine derivatives as potent anticancer agents against leukemia and apoptotic inducers” (Journal of Enzyme Inhibition and Medicinal Chemistry, 2024)

Experiments:
CCRF-CEM = assay type: cell-based; conditions: Homo sapiens, one dose 10^-5 M, 48 h
HL-60(TB) = assay type: cell-based; conditions: Homo sapiens, one dose 10^-5 M, 48 h
K-562 = assay type: cell-based; conditions: Homo sapiens, K562, one dose 10^-5 M, 48 h
MOLT-4 = assay type: cell-based; conditions: Homo sapiens, one dose 10^-5 M, 48 h, read-out: % growth
RPMI-8226 = assay type: cell-based; conditions: Homo sapiens, one dose 10^-5 M, 48 h
SR = assay type: cell-based; conditions: Homo sapiens, one dose 10^-5 M, 48 h
A549/ATCC = assay type: cell-based; conditions: Homo sapiens, one dose 10^-5 M, 48 h
EKVX = assay type: cell-based; conditions: Homo sapiens, one dose 10^-5 M, 48 h
HOP-62 = assay type: cell-based; conditions: Homo sapiens, one dose 10^-5 M, 48 h
HOP-92 = assay type: cell-based; conditions: Homo sapiens, one dose 10^-5 M, 48 h
NCI-H226 = assay type: cell-based; conditions: Homo sapiens, one dose 10^-5 M, 48 h
NCI-H23 = assay type: cell-based; conditions: Homo sapiens, one dose 10^-5 M, 48 h, read-out: % growth
NCI-H460 = assay type: cell-based; conditions: Homo sapiens, one dose 10^-5 M, 48 h, read-out: % growth
NCI-H522 = assay type: cell-based; conditions: Homo sapiens, one dose 10^-5 M, 48 h
COLO 205 = assay type: cell-based; conditions: Homo sapiens, one dose 10^-5 M, 48 h
HCC-2998 = assay type: cell-based; conditions: Homo sapiens, one dose 10^-5 M, 48 h
HCT-116 = assay type: cell-based; conditions: Homo sapiens, one dose 10^-5 M, 48 h, read-out: % growth
HCT-15 = assay type: cell-based; conditions: Homo sapiens, one dose 10^-5 M, 48 h, read-out: % growth
HT29 = assay type: cell-based; conditions: Homo sapiens, HT-29, one dose 10^-5 M, 48 h
KM12 = assay type: cell-based; conditions: Homo sapiens, one dose 10^-5 M, 48 h
SW-620 = assay type: cell-based; conditions: Homo sapiens, one dose 10^-5 M, 48 h
SF-268 = assay type: cell-based; conditions: Homo sapiens, one dose 10^-5 M, 48 h, read-out: % growth
SF-295 = assay type: cell-based; conditions: Homo sapiens, one dose 10^-5 M, 48 h
SF-539 = assay type: cell-based; conditions: Homo sapiens, one dose 10^-5 M, 48 h
SNB-19 = assay type: cell-based; conditions: Homo sapiens, one dose 10^-5 M, 48 h, read-out: % growth
SNB-75 = assay type: cell-based; conditions: Homo sapiens, one dose 10^-5 M, 48 h
U251 = assay type: cell-based; conditions: Homo sapiens, U-251, one dose 10^-5 M, 48 h
LOX IMVI = assay type: cell-based; conditions: Homo sapiens, one dose 10^-5 M, 48 h, read-out: % growth
MALME-3M = assay type: cell-based; conditions: Homo sapiens, one dose 10^-5 M, 48 h
M14 = assay type: cell-based; conditions: Homo sapiens, one dose 10^-5 M, 48 h
MDA-MB-435 = assay type: cell-based; conditions: Homo sapiens, one dose 10^-5 M, 48 h, read-out: % growth
SK-MEL-2 = assay type: cell-based; conditions: Homo sapiens, one dose 10^-5 M, 48 h
SK-MEL-28 = assay type: cell-based; conditions: Homo sapiens, one dose 10^-5 M, 48 h
SK-MEL-5 = assay type: cell-based; conditions: Homo sapiens, one dose 10^-5 M, 48 h, read-out: % growth
UACC-257 = assay type: cell-based; conditions: Homo sapiens, one dose 10^-5 M, 48 h
UACC-62 = assay type: cell-based; conditions: Homo sapiens, one dose 10^-5 M, 48 h
IGROV1 = assay type: cell-based; conditions: Homo sapiens, IGROV-1, one dose 10^-5 M, 48 h, read-out: % growth
OVCAR-3 = assay type: cell-based; conditions: Homo sapiens, one dose 10^-5 M, 48 h
OVCAR-4 = assay type: cell-based; conditions: Homo sapiens, one dose 10^-5 M, 48 h
OVCAR-5 = assay type: cell-based; conditions: Homo sapiens, one dose 10^-5 M, 48 h
OVCAR-8 = assay type: cell-based; conditions: Homo sapiens, one dose 10^-5 M, 48 h
NCI/ADR-RES = assay type: cell-based; conditions: Homo sapiens, one dose 10^-5 M, 48 h
SK-OV-3 = assay type: cell-based; conditions: Homo sapiens, one dose 10^-5 M, 48 h
786-0 = assay type: cell-based; conditions: Homo sapiens, one dose 10^-5 M, 48 h
A498 = assay type: cell-based; conditions: Homo sapiens, one dose 10^-5 M, 48 h
ACHN = assay type: cell-based; conditions: Homo sapiens, one dose 10^-5 M, 48 h
CAKI-1 = assay type: cell-based; conditions: Homo sapiens, CAKI-1, 48 h, one dose 10^-5 M, 48 h
SN12C = assay type: cell-based, human; conditions: Homo sapiens, one dose 10^-5 M, 48 h
TK-10 = assay type: cell-based; conditions: Homo sapiens, one dose 10^-5 M, 48 h
UO-31 = assay type: cell-based; conditions: Homo sapiens, UO-31, 48 h, one dose 10^-5 M, 48 h
PC-3 = assay type: cell-based; conditions: Homo sapiens, one dose 10^-5 M, 48 h
DU-145 = assay type: cell-based; conditions: Homo sapiens, one dose 10^-5 M, 48 h
MCF7 = assay type: cell-based; conditions: Homo sapiens, one dose 10^-5 M, 48 h, read-out: % growth
MDA-MB-231/ATCC = assay type: cell-based; conditions: Homo sapiens, one dose 10^-5 M, 48 h
HS 578T = assay type: cell-based; conditions: Homo sapiens; one dose 10^-5 M, 48 h; HS 578T; read-out: % growth
BT-549 = assay type: cell-based; conditions: Homo sapiens, one dose 10^-5 M, 48 h
T-47D = assay type: cell-based; conditions: Homo sapiens, T47D, one dose 10^-5 M, 48 h, read-out: % growth
MDA-MB-468 = assay type: cell-based; conditions: Homo sapiens, one dose 10^-5 M, 48 h
[1] = system: full NCI 60 cell lines panel

## CN(C)c1ccc(-c2nc(S)nc(N)c2C(=N)NN=Cc2ccc(Cl)cc2)cc1 [Compound 4b, 4-amino-N'-[(4-chlorophenyl)methylene]-6-[4-(dimethylamino)phenyl]-2-mercapto pyrimidine-5-carboximidohydrazide]
CCRF-CEM
  % cell growth at 10 µM: 76.3%
HL-60(TB)
  % growth at 10 µM: 91.8%
K-562
  % growth at 10 µM: 98.5%
MOLT-4
  activity at 10 µM: 101%
RPMI-8226
  % growth at 10 µM: 79.1%
SR
  percent cell growth at 10 µM: 98.7%
A549/ATCC
  % growth at 10 µM: 98.4%
EKVX
  % cell growth at 10 µM: 91.8%
HOP-62
  % growth at 10 µM: 109%
HOP-92
  % growth at 10 µM: 118%
NCI-H226
  % growth at 10 µM: 99.8%
NCI-H23
  activity at 10 µM: 101%
NCI-H460
  activity at 10 µM: 99.8%
NCI-H522
  % growth at 10 µM: 92.4%
COLO 205
  % growth at 10 µM: 137%
HCC-2998
  % growth at 10 µM: 94.3%
HCT-116
  activity at 10 µM: 100%
HCT-15
  activity at 10 µM: 92.3%
HT29
  % growth at 10 µM: 92.7%
KM12
  % growth at 10 µM: 92.9%
SW-620
  % growth at 10 µM: 102%
SF-268
  activity at 10 µM: 97.5%
SF-295
  % cell growth at 10 µM: 96.8%
SF-539
  % growth at 10 µM: 98%
SNB-19
  activity at 10 µM: 98.8%
SNB-75
  % growth at 10 µM: 95.2%
U251
  % growth at 10 µM: 106%
LOX IMVI
  activity at 10 µM: 103%
MALME-3M
  % growth at 10 µM: 98.7%
M14
  % growth at 10 µM: 96.9%
MDA-MB-435
  activity at 10 µM: 96.2%
SK-MEL-2
  % growth at 10 µM: 107%
SK-MEL-28
  % cell growth at 10 µM: 103%
SK-MEL-5
  activity at 10 µM: 97.6%
UACC-257
  percent cell growth at 10 µM: 99.7%
UACC-62
  % growth at 10 µM: 94%
IGROV1
  activity at 10 µM: 102%
OVCAR-3
  % growth at 10 µM: 102%
OVCAR-4
  % growth at 10 µM: 95.5%
OVCAR-5
  percent cell growth at 10 µM: 109%
OVCAR-8
  % growth of cells at 10 µM: 106%
NCI/ADR-RES
  cell growth percent at 10 µM: 104%
SK-OV-3
  % growth at 10 µM: 120%
786-0
  % growth at 10 µM: 86.7%
A498
  % growth at 10 µM: 92.1%
ACHN
  % growth at 10 µM: 102%
CAKI-1
  % growth at 10 µM: 102%
SN12C
  % growth at 10 µM: 88.5%
TK-10
  % cell growth at 10 µM: 90%
UO-31
  % cell growth at 10 µM: 65.4%
PC-3
  percent cell growth at 10 µM: 91.5%
DU-145
  % growth at 10 µM: 100%
MCF7
  activity at 10 µM: 90.9%
MDA-MB-231/ATCC
  % growth at 10 µM: 102%
HS 578T
  activity at 10 µM: 97.5%
BT-549
  % cell growth at 10 µM: 95.7%
T-47D
  activity at 10 µM: 88.3%
MDA-MB-468
  percent cell growth at 10 µM: 107%
[1]; Homo sapiens, 60 cell, 48 h, read-out: Mean % growth
  activity at 10 µM: 98.2%
[1]; one dose
  activity on all 60 cancer cell lines tested (in words): weak activity
